The source of these data is patent US20110201634A1, “DIHYDROPYRIDIMIDINONE COMPOUNDS FOR THE TREATMENT OF CARDIOVASCULAR DISEASES AND PROCESS FOR PREPARING THE SAME” (DELHI UNIVERSITY, priority 2008, published 2011).

Structures are written as SMILES.

In assay [1] the test system is platelets (ADP-induced platelet aggregation). The assay can be described thus: ADP-induced platelet aggregation, ex vivo after administration by gavage. As to conditions: po, suspended in water, sonicated, given by gavage, equimolar dose (40 μM), ADP 15 μM. The source says:
C. Preparation of Platelet Rich Plasma for the EX VIVO Studies

Assay [2] has the same test system. As to the kind of experiment: ADP-induced platelet aggregation, in vitro (platelet rich plasma). The format is cell-based. Particulars: test compounds equimolar (40 μM); ADP 15 μM. From the text: Preparation of Platelet Rich Plasma for the IN VITRO Studies (7)
The subject of a further assay is TAase. As to the kind of experiment: TAase activity. Type of assay: biochemical.
Assay [3] concerns intracellular nitric oxide level. The assay can be described thus: Enhancement of intracellular nitric oxide. The format is cell-based. As to conditions: equimolar (40 μM).

In general, inhibition refers to the percentage by which the read-out fell short of the control. The compound `CC(=O)Oc1ccccc1C(=O)O` displayed an inhibition at 40 µM in assay [1] of 55%. For the same compound, the “ADP-induced Platelet aggregation (% inhibition) IN VITRO” value in assay [2] is given as “Nil”. Besides, the “TAase Activity (Units)” value in the assay with TAase is listed as “Nil”. In addition, the “Enhancement of Nitric Oxide (folds)” value in assay [3] was “Nil”.

For the compound `COC(=O)C(c1ccccc1Cl)N1CCc2sccc2C1` (centres unmarked), the inhibition at 40 µM in assay [1] is 65%. Further, in assay [2], the “ADP-induced Platelet aggregation (% inhibition) IN VITRO” value was “Nil”. Moreover, in the assay with TAase, the “TAase Activity (Units)” value is reported as “Nil”. Further, the “Enhancement of Nitric Oxide (folds)” value in assay [3] is “Nil”.
